Laboratory results published in paper PMC5393024, “Discovery and characterization of natural tropolones as inhibitors of the antibacterial target CapF from Staphylococcus aureus” (Scientific Reports, 2015).

What was measured:
[1] = system: apo-CapF (Zn^2+-depleted); assay: ITC binding to Zn2+-depleted CapF (1 mM EDTA); parameters: species or system Staphylococcus aureus; conditions: 150 μM CapF, 1.65 mM inhibitor
Description: (§1) Because tropolone and its analogs have been described as metal chelators in proteins, we anticipated that binding of the inhibitor to CapF is governed by the Zn^2+ ion present in the cupin domain[12]. To confirm this hypothesis, we performed two different types of experiments. First, we determined the binding properties of 3-isopropenyl-tropolone to apo-CapF (i.e. Zn^2+-depleted CapF) and to holo-CapF (reconstituted with Zn^2+) by isothermal titration calorimetry (ITC). The stoichiometry is consistent with a 1:1 binding model.
Figure 3 Binding of 3-isopropenyl-tropolone to CapF requires Zn^2+. CapF (150 μM) reconstituted with Zn^2+ was titrated with 1.65 mM inhibitor in the absence (a) or the presence (b) of 1 mM EDTA. The upper panels correspond to the titration data, and the lower panels to the integrated binding isotherms. (c) Binding competition assay. CapF (1.0 μM) reconstituted with Zn^2+ in the presence of the Zn^2+-sensitive dye FluoZin-3 (1.0 μM) was titrated with 3-isopropenyl-tropolone (λEX = 490 nm; λEM = 520 nm).
Binding constants and thermodynamic parameters of the interaction between CapF and fragment compounds were determined with an iTC200 instrument (GE Healthcare) at 25 °C. Samples were equilibrated in a buffer composed of 10 mM HEPES (pH 7.4) and 150 mM NaCl supplemented with 5% (v/v) DMSO. CapF at 150–270 μM was titrated with compounds at 0.5–1.65 mM. […]

[2] = target: T1, CapF lacking the His6-tag (Staphylococcus aureus, UniProt A0A0H3JP37); assay: ITC binding to CapF lacking the His6-tag
T1 sequence (A0A0H3JP37 1-369): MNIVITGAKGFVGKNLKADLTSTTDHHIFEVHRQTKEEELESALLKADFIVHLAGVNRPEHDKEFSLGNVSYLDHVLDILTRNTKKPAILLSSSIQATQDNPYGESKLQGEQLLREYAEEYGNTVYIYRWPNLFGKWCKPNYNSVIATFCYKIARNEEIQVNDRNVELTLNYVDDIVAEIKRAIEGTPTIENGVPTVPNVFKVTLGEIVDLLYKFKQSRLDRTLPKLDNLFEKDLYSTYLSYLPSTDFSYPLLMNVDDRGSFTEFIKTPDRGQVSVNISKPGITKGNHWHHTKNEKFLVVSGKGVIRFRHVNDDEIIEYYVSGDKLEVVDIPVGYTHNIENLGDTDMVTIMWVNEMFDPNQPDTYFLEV
Description: A control experiment with CapF lacking the His6-tag was carried to rule out the possibility of spurious effects caused by the affinity tag (Supplementary Information Figure S4).
Figure S4. Binding of 3-isopropyl-tropolone to CapF lacking the His6-tag. Titration of CapF (220 µM) with 2.2 mM inhibitor in a buffer composed of 10 mM HEPES (pH 7.5), 150 mM NaCl, and 5% DMSO at 25 °C. A construct of full-length CapF bearing a cleavable His6-tag was prepared and purified exactly as that of CapF Δ57-70 (see Methods section for the detailed protocol of CapFΔ57-70), except that (i) the dialysis buffer after to reconstitute the enzyme with Zn2+ contained 150 mM NaCl (instead of 50 mM) and 12.5 µM ZnCl2 (instead of 10 µM), and (ii) the buffer of the size exclusion chromatography step contained 10 mM HEPES (instead of 50 mM) and 150 mM NaCl (instead of 50 mM). The values of the thermodynamic parameters […]
kcal mol-1, and n = 0.92 ± 0.1.
(1 picture or pasted object on this page, not shown here)

[3] = ITC titration of free Zn2+ in solution; assay type: binding; conditions: 150 µM Zn2+ (ZnCl2) titrated with 1.65 mM compound
Description: as §1
Figure S3. Zn2+ governs the binding of inhibitor to CapF. (a) Titration of 150 µM Zn2+ (prepared
from ZnCl2) with 1.65 mM 3-isopropenyl-tropolone. (b) Fluorescence of the Zn2+-sensitive dye
FluoZin-3 (1.0 µM) in the presence of CapF (1 µM), CapF (1 µM) with 3-isopropenyl-tropolone […]

[4] = target: CapF; assay: SPR binding to immobilized CapF; parameters: species or system Staphylococcus aureus; conditions: 25 °C
Description: To identify small-molecule inhibitors of CapF we employed fragment-based methodologies (Supplementary Information Figure S1)[13][14]. A fragment library consisting of 1,994 compounds was obtained from the Drug Discovery Initiative program (The University of Tokyo, see the Methods section for an brief description of the features of this library). This library was employed to screen for potential inhibitors of CapF using the technique of surface plasmon resonance (SPR). This screening methodology identified compounds with the ability to bind to the target protein but not by their inhibitory potency. Inhibition was only assessed with the selected hit compound using two separate enzymatic assays (see below). To maximize the sensitivity of the SPR signal the microtiter-based assay mode was employed. The values of the parameters CV (1.0%) and Z-factor (0.93) were monitored throughout the screen. […]
A total of 15 compounds selected from the library screening were next evaluated with SPR at three different concentrations (100 μM, 10 μM, and 1 μM) to detect compounds giving false positive signals, which are generally known as nonspecific and promiscuous binders. […] Lastly, we determined the binding affinity of these five compounds for CapF with SPR. […]

## C=C(C)c1ccccc(=O)c1O [3-isopropenyl-tropolone]
[1]
  binding to apo-CapF by ITC: does not bind
[2]
  Kd: 13 ± 1 µM
[2]; ITC, 25 °C
  -TΔS: -3.0 ± 0.4 kcal/mol
  n: 0.92 ± 0.1
  ΔH: -3.6 ± 0.3 kcal/mol
[3]
  binding to free-Zn^2+ in solution by ITC: not detected
[4]
  binding affinity for CapF with SPR: sub-millimolar
